Source: ChEMBL document CHEMBL1201862, “PubChem BioAssay data set” (2004)
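1) Cells in 96-well plates. 2) Compound, 48 h, 5 concentrations. 3) Linear interpolation between surrounding doses. 4) Unreached endpoint = highest concentration. Abbreviation: GI50, concentration required for 50% inhibition of growth.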 Calls of active or inactive are those of the source. Cut-off read from the data, not from the text of the source: active = GI50 up to about 1.1 µM and inactive = higher.

Tests used:
Assay in all cases: DTP human tumour cell line panel, 48 h
[1] = test system: OVCAR-8
[2] = test system: RXF 631
[3] = test system: NCI-H460
[4] = test system: OVCAR-5
[5] = test system: HCT-116
[6] = test system: OVCAR-4
[7] = test system: DLD-1
[8] = test system: SK-MEL-2
[9] = test system: UACC-62
[10] = test system: RPMI-8226
[11] = test system: SF-295
[12] = test system: SF-539
[13] = test system: HCC 2998
[14] = test system: 786-0
[15] = test system: SK-MEL-28
[16] = test system: M19-MEL
[17] = test system: A498
[18] = test system: NCI-H23
[19] = test system: K562
[20] = test system: M14
[21] = test system: HL-60
[22] = test system: SN12C
[23] = test system: EKVX
[24] = test system: HOP-18
[25] = test system: SNB-75
[26] = test system: XF498
[27] = test system: SNB-19
[28] = test system: ACHN
[29] = test system: TK-10
[30] = test system: SNB-78
[31] = test system: HT-29
[32] = test system: RXF 393
[33] = test system: OVCAR-3
[34] = test system: MOLT-4
[35] = test system: UACC-257
[36] = test system: CAKI-1
[37] = test system: A549
[38] = test system: LXFL 529
[39] = test system: Malme-3M
[40] = test system: COLO 205
[41] = test system: SF-268
[42] = test system: IGROV-1
[43] = test system: SK-MEL-5
[44] = test system: KM12
[45] = test system: KM-20L2
[46] = test system: SK-OV-3
[47] = test system: U-251
[48] = test system: CCRF-CEM
[49] = test system: HOP-92
[50] = test system: HOP-62
[51] = test system: DMS-114
[52] = test system: HCT-15
[53] = test system: DMS-273
[54] = test system: SW-620
[55] = test system: SR
[56] = test system: NCI-H226
[57] = test system: UO-31
[58] = test system: LOX IMVI
[59] = test system: NCI-H522

Measured: GI50

COC(=O)[C@@]12C=CC(=O)[C@H]3C[C@@H](C(C(C)C)C1)[C@]32OC (stereo partly drawn)
> 100 µM: [52]
inactive: [1] > 100 µM | [2] > 100 µM | [3] > 100 µM | [4] > 100 µM | [5] > 100 µM | [6] > 100 µM | [7] > 100 µM | [8] > 100 µM | [9] > 100 µM | [10] > 100 µM | [11] > 100 µM | [12] > 100 µM | [13] > 100 µM | [14] > 100 µM | [15] > 100 µM | [16] > 100 µM | [17] > 100 µM | [18] > 100 µM | [19] > 100 µM | [20] > 100 µM | [21] > 100 µM | [22] > 100 µM | [23] > 100 µM | [24] > 100 µM | [25] > 100 µM | [26] > 100 µM | [27] > 100 µM | [28] > 100 µM | [29] > 100 µM | [30] > 100 µM | [31] > 100 µM | [32] > 100 µM | [33] > 100 µM | [34] > 100 µM | [35] > 100 µM | [36] > 100 µM | [37] > 100 µM | [38] > 100 µM | [39] > 100 µM | [40] > 100 µM | [41] > 100 µM | [42] > 100 µM | [43] > 100 µM | [44] > 100 µM | [45] > 100 µM | [46] > 100 µM | [47] > 100 µM | [48] > 100 µM | [49] > 100 µM | [50] > 100 µM | [51] > 100 µM | [53] > 100 µM | [54] > 100 µM

CCC1CN2CCc3cc(OC)c(OC)cc3C2CC1CC1c2cc(OC)c(OC)cc2CCN1C(=O)C1CCCN1 (stereo not drawn)
31.7 µM: [52]
inactive: [1] 38.8 µM | [2] 28.7 µM | [55] 19.1 µM | [3] 25.9 µM | [4] 53 µM | [5] 19.5 µM | [6] 25.5 µM | [7] 30.1 µM | [8] 27.8 µM | [10] 50.5 µM | [11] 41 µM | [12] 20.3 µM | [13] 23.9 µM | [14] 17.1 µM | [56] 31.3 µM | [15] 18.8 µM | [16] 19.2 µM | [17] 28.6 µM | [18] 32.5 µM | [19] 20.5 µM | [20] 14.5 µM | [21] 19.3 µM | [22] 37.5 µM | [23] 36.6 µM | [24] 33.7 µM | [25] 26 µM | [26] 18.8 µM | [27] 14.9 µM | [57] 21.5 µM | [28] 28.7 µM | [29] 45.4 µM | [30] 47.4 µM | [31] 27.4 µM | [32] 33.5 µM | [33] 27.4 µM | [34] 32.4 µM | [35] 17.2 µM | [36] 6.44 µM | [37] 26.4 µM | [38] 24.5 µM | [58] 24.9 µM | [39] 21.4 µM | [40] 13 µM | [41] 32.8 µM | [59] 16.3 µM | [42] 28.4 µM | [43] 17.3 µM | [44] 35.2 µM | [46] 29.4 µM | [47] 23.9 µM | [48] 26.1 µM | [49] 28.7 µM | [50] 32.5 µM | [53] 35.3 µM | [54] 28.8 µM

COCCOc1cc(C)cc(/C=C(C)/C=C/C2=C(C)CCCC2(C)C)n1
inactive: [1] 60.7 µM | [2] 59.8 µM | [55] 16.5 µM | [3] 88.7 µM | [4] > 100 µM | [5] 30.7 µM | [6] 59.2 µM | [7] > 100 µM | [8] 49 µM | [9] > 100 µM | [10] 14.8 µM | [11] > 100 µM | [12] > 100 µM | [14] > 100 µM | [56] 32.1 µM | [15] > 100 µM | [16] 32.8 µM | [17] > 100 µM | [18] 58.9 µM | [20] 94 µM | [22] > 100 µM | [23] 38.2 µM | [24] > 100 µM | [25] > 100 µM | [26] 43.6 µM | [27] > 100 µM | [57] > 100 µM | [28] 84.3 µM | [29] > 100 µM | [30] 81.3 µM | [31] 28.6 µM | [32] 39.7 µM | [33] > 100 µM | [34] 13.3 µM | [35] 33.2 µM | [36] > 100 µM | [37] 51.9 µM | [38] 45.8 µM | [58] 54.8 µM | [39] 38.3 µM | [40] 54 µM | [41] > 100 µM | [59] 28.9 µM | [42] > 100 µM | [43] 17.3 µM | [44] 70.6 µM | [46] > 100 µM | [47] 62.4 µM | [49] 38.6 µM | [50] > 100 µM | [51] 28.1 µM | [53] 48.5 µM | [54] 59.7 µM
